# According to ChEMBL document CHEMBL6087436, “The novel β-hairpin antimicrobial peptide D-G(RF)3 demonstrates exceptional antibacterial efficacy” (Eur J Med Chem, 2025):
# Activity calls are given as the source filed them. No cut-off for these calls is given here.
# Legend:
# Pseudomonas aeruginosa [1] = experiment: Antibacterial activity against Pseudomonas aeruginosa ATCC 27853 in presence of 4.5 mM KCl; format: functional, organism-based
# Pseudomonas aeruginosa [2] = experiment: Synergistic antibacterial activity against Pseudomonas aeruginosa assessed as fractional inhibitory concentration index in presence of rifampin incubated for 18 hrs by checkerboard method; format: functional
# Staphylococcus aureus [3] = experiment: Inhibition of biofilm formation in Staphylococcus aureus ATCC 25923 incubated for 24 hrs by crystal violet staining based analysis; format: functional, organism-based; conditions: dose 1-32 µM
# Klebsiella pneumoniae [4] = experiment: Synergistic antibacterial activity against Klebsiella pneumoniae assessed as fractional inhibitory concentration index in presence of rifampin incubated for 18 hrs by checkerboard method; format: functional
# Staphylococcus aureus [5] = experiment: Synergistic antibacterial activity against Staphylococcus aureus assessed as fractional inhibitory concentration index in presence of bacitracin incubated for 18 hrs by checkerboard method; format: functional
# Klebsiella pneumoniae [6] = experiment: In vivo antibacterial activity against Klebsiella pneumoniae ATCC 700603 infected in male Balb/c mouse lung infection model assessed as reduction in alveoli expansion at 10 mg/kg, ip measured after 24 hrs by H and E staining based analysis; format: functional, organism-based
# Klebsiella pneumoniae [7] = experiment: In vivo antibacterial activity against Klebsiella pneumoniae ATCC 700603 infected in male Balb/c mouse lung infection model assessed as reduction in serous exudation of alveolar cavities at 10 mg/kg, ip measured after 24 hrs by H and E staining based analysis; format: functional, organism-based
# Staphylococcus aureus [8] = experiment: Antibacterial activity against Staphylococcus aureus ATCC 25923 in presence of 150 mM NaCl; format: functional, organism-based
# Bacillus subtilis = experiment: Antibacterial activity against Bacillus subtilis ATCC 23857 assessed as inhibition of bacterial growth incubated for 18 hrs by microbroth dilution assay; format: functional
# Pseudomonas aeruginosa [9] = experiment: Inhibition of biofilm formation in Pseudomonas aeruginosa ATCC 27853 incubated for 24 hrs by crystal violet staining based analysis; format: functional, organism-based; conditions: dose 1-32 µM
# [10] = Acute toxicity in male balb/c mouse assessed as lethal dose at ip administration; format: organism-based; conditions: in vivo
# Pseudomonas aeruginosa [11] = experiment: Antibacterial activity against Pseudomonas aeruginosa ATCC 27853 in presence of 6 uM NH4Cl; format: functional, organism-based
# Staphylococcus aureus [12] = experiment: Antibacterial activity against Staphylococcus aureus ATCC 25923 in presence of 2 mM CaCl2; format: functional, organism-based
# Klebsiella pneumoniae [13] = experiment: Inhibition of biofilm formation in Klebsiella pneumoniae ATCC 700603 at 1 uM incubated for 24 hrs by crystal violet staining based analysis; format: functional, organism-based
# Escherichia coli [14] = experiment: Inhibition of biofilm formation in Escherichia coli ATCC 25922 at >= 2 uM incubated for 24 hrs by crystal violet staining based analysis; format: functional, organism-based
# Pseudomonas aeruginosa [15] = experiment: Antibacterial activity against Pseudomonas aeruginosa ATCC 27853 in presence of 1 mM MgCl2; format: functional, organism-based
# Klebsiella pneumoniae [16] = experiment: Synergistic antibacterial activity against Klebsiella pneumoniae assessed as fractional inhibitory concentration index in presence of kanamycin incubated for 18 hrs by checkerboard method; format: functional
# Pseudomonas aeruginosa [17] = experiment: Antibacterial activity against Pseudomonas aeruginosa ATCC 27853 assessed as inhibition of bacterial growth incubated for 18 hrs by microbroth dilution assay; format: functional
# Escherichia coli [18] = experiment: Inhibition of biofilm formation in Escherichia coli ATCC 25922 incubated for 24 hrs by crystal violet staining based analysis; format: functional, organism-based; conditions: dose 1-32 µM
# Klebsiella pneumoniae [19] = experiment: Synergistic antibacterial activity against Klebsiella pneumoniae assessed as fractional inhibitory concentration index in presence of polymyxin B incubated for 18 hrs by checkerboard method; format: functional
# Pseudomonas aeruginosa [20] = experiment: Antibacterial activity against Pseudomonas aeruginosa ATCC 27853 in presence of 150 mM NaCl; format: functional, organism-based
# Staphylococcus aureus [21] = experiment: Antibacterial activity against Staphylococcus aureus ATCC 25923 in presence of 1 mM MgCl2; format: functional, organism-based
# Pseudomonas aeruginosa [22] = experiment: Antibacterial activity against Pseudomonas aeruginosa ATCC 27853 in presence of 8 uM ZnCl2; format: functional, organism-based
# [23] = Hemolytic activity in Kunming mouse erythrocytes assessed as hemolysis incubated for 1 hr by multimode reader analysis; format: toxicity, cell-based; conditions: erythrocyte
# Staphylococcus aureus [24] = experiment: Antibacterial activity against Staphylococcus aureus ATCC 25923 in presence of 4.5 mM KCl; format: functional, organism-based
# Escherichia coli [25] = experiment: Antibacterial activity against Escherichia coli ATCC 25922 assessed as inhibition of bacterial growth incubated for 18 hrs by microbroth dilution assay; format: functional
# Escherichia coli [26] = experiment: Synergistic antibacterial activity against Escherichia coli assessed as fractional inhibitory concentration index in presence of polymyxin B incubated for 18 hrs by checkerboard method; format: functional
# Cell membrane [27] = experiment: Induction of Inner membrane permeabilization in Escherichia coli ML-35 ATCC […] measured every 5 mins for 120 mins by ONPG dye based assay; format: subcellular
# Klebsiella pneumoniae [28] = experiment: In vivo antibacterial activity against Klebsiella pneumoniae ATCC 700603 infected in male Balb/c mouse lung infection model assessed as reduction in crumpling alveoli at 10 mg/kg, ip measured after 24 hrs by H and E staining based analysis; format: functional, organism-based
# Staphylococcus aureus [29] = experiment: Antibacterial activity against Staphylococcus aureus ATCC 25923 in presence of 4 uM FeCl3; format: functional, organism-based
# Cell membrane [30] = experiment: Induction of cell membrane permeability in Escherichia coli assessed as grooves shallower at 2 times MIC by SEM analysis; format: subcellular
# Escherichia coli [31] = experiment: Synergistic antibacterial activity against Escherichia coli assessed as fractional inhibitory concentration index in presence of rifampin incubated for 18 hrs by checkerboard method; format: functional
# Pseudomonas aeruginosa [32] = experiment: Antibacterial activity against Pseudomonas aeruginosa ATCC 27853 in presence of 2 mM CaCl2; format: functional, organism-based
# Cell membrane [33] = experiment: Induction of Outer membrane permeabilization in Escherichia coli assessed as increase in fluorescence intensity incubated for 1 min by NPN-dye based fluorescence analysis; format: subcellular
# Staphylococcus aureus [34] = experiment: Antibacterial activity against Staphylococcus aureus ATCC 25923 assessed as inhibition of bacterial growth incubated for 18 hrs by microbroth dilution assay; format: functional
# Klebsiella pneumoniae [35] = experiment: In vivo antibacterial activity against Klebsiella pneumoniae ATCC 700603 infected in male Balb/c mouse lung infection model assessed as reduction in pulmonary bacterial load at 5 mg/kg, ip measured after 24 hrs (reference value: 3.05 x 10^9 CFU/g); format: functional
# [36] = Hemolytic activity in Kunming mouse erythrocytes assessed as hemolytic rate at 256 uM incubated for 1 hr by multimode reader analysis relative to control; format: toxicity, cell-based, Erythrocyte; conditions: read-out: Activity
# Pseudomonas aeruginosa [37] = experiment: Synergistic antibacterial activity against Pseudomonas aeruginosa assessed as fractional inhibitory concentration index in presence of imipenem incubated for 18 hrs by checkerboard method; format: functional
# Staphylococcus aureus [38] = experiment: Antibacterial activity against Staphylococcus aureus ATCC 25923 in presence of 6 uM NH4Cl; format: functional, organism-based
# Cell membrane [39] = experiment: Induction of Cytoplasmic membrane depolarization in Staphylococcus aureus measured for every 10 mins by DiSC3(5) dye based fluorescence method
# Cell membrane [40] = experiment: Induction of cell membrane permeability in Escherichia coli assessed as bacterial breakage at 2 times MIC by SEM analysis; format: subcellular
# Staphylococcus aureus [41] = experiment: Antibacterial activity against Staphylococcus aureus ATCC 25923 in presence of 8 uM ZnCl2; format: functional, organism-based
# [42] = Retention time of the compound by RP-HPLC analysis; format: physicochemical
# Cell membrane [43] = experiment: Induction of cell membrane permeability in Escherichia coli assessed as cluster formation at 2 times MIC by SEM analysis; format: subcellular
# [44] = Stability of compound in mouse plasma assessed as degradation of compound by measuring half life incubated for 48 hrs by RP-HPLC analysis; format: ADME, cell-free
smiles,measurement,setting,value
N=C(N)NCCC[C@H](NC(=O)CNC(=O)[C@H]1CCCN1C(=O)[C@H](CCCNC(=N)N)NC(=O)[C@H](Cc1ccccc1)NC(=O)[C@H](CCCNC(=N)N)NC(=O)[C@H](Cc1ccccc1)NC(=O)[C@H](CCCNC(=N)N)NC(=O)[C@@H](N)Cc1ccccc1)C(=O)N[C@@H](Cc1ccccc1)C(=O)N[C@@H](CCCNC(=N)N)C(=O)N[C@@H](Cc1ccccc1)C(=O)N[C@@H](CCCNC(=N)N)C(=O)N[C@@H](Cc1ccccc1)C(N)=O,Activity,Pseudomonas aeruginosa [1],Active
same,fractional inhibitory concentration index (FICI),Pseudomonas aeruginosa [2],0.313
same,inhibition,Staphylococcus aureus [3],Dose-dependent-effect
same,fractional inhibitory concentration index (FICI),Klebsiella pneumoniae [4],0.313
same,fractional inhibitory concentration index (FICI),Staphylococcus aureus [5],0.375
same,Activity,Klebsiella pneumoniae [6],Active
same,Activity,Klebsiella pneumoniae [7],Active
same,Activity,Staphylococcus aureus [8],Active
same,MIC,Bacillus subtilis,4 µM
same,inhibition,Pseudomonas aeruginosa [9],Dose-dependent-effect
same,LD50,[10],81.3 mg/kg
same,Activity,Pseudomonas aeruginosa [11],Active
same,Activity,Staphylococcus aureus [12],Active
same,inhibition,Klebsiella pneumoniae [13],Active; Less Effective Than Polymyxin B
same,inhibition,Escherichia coli [14],Active
same,Activity,Pseudomonas aeruginosa [15],Active
same,fractional inhibitory concentration index (FICI),Klebsiella pneumoniae [16],0.313
same,MIC,Pseudomonas aeruginosa [17],4 µM
same,inhibition,Escherichia coli [18],Dose-dependent-effect
same,fractional inhibitory concentration index (FICI),Klebsiella pneumoniae [19],0.188
same,Activity,Pseudomonas aeruginosa [20],Active
same,Activity,Staphylococcus aureus [21],Active
same,Activity,Pseudomonas aeruginosa [22],Active
same,MHC10,[23],512 µM
same,Activity,Staphylococcus aureus [24],Active
same,MIC,Escherichia coli [25],4 µM
same,fractional inhibitory concentration index (FICI),Escherichia coli [26],0.25
same,Activity,Cell membrane [27],Dose-dependent-effect
same,Activity,Klebsiella pneumoniae [28],Active
same,Activity,Staphylococcus aureus [29],Active
same,Activity,Cell membrane [30],Active
same,fractional inhibitory concentration index (FICI),Escherichia coli [31],0.313
same,Activity,Pseudomonas aeruginosa [32],Active
same,Activity,Cell membrane [33],Active
same,MIC,Staphylococcus aureus [34],4 µM
same,Activity,Klebsiella pneumoniae [35],1.52 10^8CFU/g
same,"hemolysis at 1 h, 256 µM",[36],9.7%
same,fractional inhibitory concentration index (FICI),Pseudomonas aeruginosa [37],0.313
same,Activity,Staphylococcus aureus [38],Active
same,Activity,Cell membrane [39],Dose-dependent-effect
same,Activity,Cell membrane [40],Active
same,Activity,Staphylococcus aureus [41],Active
same,Retention_time,[42],14.433 min
same,Activity,Cell membrane [43],Active
same,half-life,[44],3.03 h
N=C(N)NCCC[C@@H](NC(=O)CNC(=O)[C@H]1CCCN1C(=O)[C@@H](CCCNC(=N)N)NC(=O)[C@@H](Cc1ccccc1)NC(=O)[C@@H](CCCNC(=N)N)NC(=O)[C@@H](Cc1ccccc1)NC(=O)[C@@H](CCCNC(=N)N)NC(=O)[C@H](N)Cc1ccccc1)C(=O)N[C@H](Cc1ccccc1)C(=O)N[C@H](CCCNC(=N)N)C(=O)N[C@H](Cc1ccccc1)C(=O)N[C@H](CCCNC(=N)N)C(=O)N[C@H](Cc1ccccc1)C(N)=O,Activity,Pseudomonas aeruginosa [1],Active
same,fractional inhibitory concentration index (FICI),Pseudomonas aeruginosa [2],0.313
same,inhibition,Staphylococcus aureus [3],Dose-dependent-effect
same,fractional inhibitory concentration index (FICI),Klebsiella pneumoniae [4],0.313
same,fractional inhibitory concentration index (FICI),Staphylococcus aureus [5],0.375
same,Activity,Klebsiella pneumoniae [6],Active
same,Activity,Klebsiella pneumoniae [7],Active
same,Activity,Staphylococcus aureus [8],Active
same,MIC,Bacillus subtilis,2 µM
same,inhibition,Pseudomonas aeruginosa [9],Dose-dependent-effect
same,LD50,[10],45.3 mg/kg
same,Activity,Pseudomonas aeruginosa [11],Active
same,Activity,Staphylococcus aureus [12],Active
same,inhibition,Klebsiella pneumoniae [13],Active; Less Effective Than Polymyxin B
same,inhibition,Escherichia coli [14],Active
same,Activity,Pseudomonas aeruginosa [15],Active
same,fractional inhibitory concentration index (FICI),Klebsiella pneumoniae [16],0.375
same,MIC,Pseudomonas aeruginosa [17],4 µM
same,inhibition,Escherichia coli [18],Dose-dependent-effect
same,fractional inhibitory concentration index (FICI),Klebsiella pneumoniae [19],0.188
same,Activity,Pseudomonas aeruginosa [20],Active
same,Activity,Staphylococcus aureus [21],Active
same,Activity,Pseudomonas aeruginosa [22],Active
same,MHC10,[23],> 256 µM
same,Activity,Staphylococcus aureus [24],Active
same,MIC,Escherichia coli [25],8 µM
same,fractional inhibitory concentration index (FICI),Escherichia coli [26],0.188
same,Activity,Cell membrane [27],Dose-dependent-effect
same,Activity,Klebsiella pneumoniae [28],Active
same,Activity,Staphylococcus aureus [29],Active
same,Activity,Cell membrane [30],Active
same,fractional inhibitory concentration index (FICI),Escherichia coli [31],0.25
same,Activity,Pseudomonas aeruginosa [32],Active
same,Activity,Cell membrane [33],Active
same,MIC,Staphylococcus aureus [34],4 µM
same,Activity,Klebsiella pneumoniae [35],5.98 10^7CFU/g
same,"hemolysis at 1 h, 256 µM",[36],4.3%
same,fractional inhibitory concentration index (FICI),Pseudomonas aeruginosa [37],0.375
same,Activity,Staphylococcus aureus [38],Active
same,Activity,Cell membrane [39],Dose-dependent-effect
same,Activity,Cell membrane [40],Active
same,Activity,Staphylococcus aureus [41],Active
same,Retention_time,[42],14.438 min
same,Activity,Cell membrane [43],Active
same,half-life,[44],> 48 h
